According to patent US11707442B2, “Antibacterial and antifungal compounds” (The General Hospital Corporation, priority 2015, dated 2023):

Tests used:
[1] = test system: S. aureus MW2; type: cell-based, Staphylococcus aureus; conditions: for fold increase in resistance: mutations in graS, yjbH, and manA; for fold increased resistance of CD437-resistant mutants: presumptive CD437-resistant SP1/SP2 mutants
Experimental: Development of resistant mutants by serial passage was conducted as previously described (Friedman, L. et al. Genetic changes that correlate with reduced susceptibility to daptomycin in Staphylococcus aureus. Antimicrob. Agents Chemother. 2006, 50, 2137-2145). […] The extended gradient was created by 2-fold serial dilutions with cation-adjusted Muller-Hinton media (CaMH) from three different starting concentrations: 80, 96, and 128 μg/ml. […] After incubating the plate at 37° C. for 24 h, OD600 nm was measured by a spectrophotometer (SpectraMax M2, Molecular Devices). Bacterial growth was defined as OD600 nm≥0.1. Two μl of the bacterial culture at the highest drug concentration that permitted bacterial growth was diluted 1,000-fold in CaMH, and the diluted culture was used as inoculum for the next passage. The rest of the culture was stored in 16% glycerol at −80° C.
Sequencing of PCR products were conducted by GENEWIZ (South Plainfield, N.J., USA). The passage day when the mutations occurred was identified by colony PCR using three colonies from each glycerol freezer stock, followed by sequencing of the PCR products. The passage day when the susceptibility to the retinoids changed was identified by repeating MIC determinations using overnight cultures from three colonies from each glycerol freezer stock.

[2] = test system: S. aureus MW2 (MRSA) in neutropenic mouse thigh; type: in vivo
Experimental: Deep-seated mouse thigh infection model for evaluating drug efficacy. A previously described protocol to mimic a chronic, deep-tissue infection was used with modifications (See, e.g., Conlon, B. P. et al. Activated ClpP kills persisters and eradicates a chronic biofilm infection. Nature 503, 365-370 (2013)). Six-week-old female CD1 ICR outbred mice (20-25 g) were obtained from Charles River Laboratories. To make mice neutropenic, 150 mg/kg and 100 mg/kg of cyclophosphamide were administered intraperitoneally (i.p.) at 4 days and 1 day before infection, respectively. On the day of infection, ˜10^7 cells of stationary-phase S. aureus MW2 resuspended in 50 μl saline were injected to the right thigh of each mouse. […] Control mice were injected with 200 μl of 10% Kolliphor EL/ethanol in saline i.p. every 12 h for 3 days. After euthanizing mice at 96 h post-infection, blood was collected by cardiac puncture and the infected thighs were aseptically excised. All samples were stored at 4° C. until use. Serum was analyzed for alanine aminotransferase and urea nitrogen content with commercially available kits, following the manufacturer's protocol (Pointe Scientific, Canton, Mich., USA). Thighs were homogenized in PBS and the number of MRSA in homogenates was enumerated by serial dilution and spot-plating on TSA plates, and bacterial load was recorded as CFU/g thigh tissue. […] Statistical significance among each group was analyzed by one-way ANOVA with post-hoc Tukey test using PASW Statistics 18 (SPSS Inc. Chicago, Ill., USA).
At 12 h after the last treatment, mice were euthanized and their thighs were excised and homogenized. […] Statistical differences between control and antibiotic treatment groups were analyzed by one-way ANOVA and post-hoc Tukey test (***p<0.001).
At 12 h after the last treatment, mice were euthanized, blood was collected and analyzed for ALT and BUN. […] Control and antibiotic treatment were analyzed by one-way ANOVA and post-hoc Tukey test to confirm a lack of significant difference

[3] = test system: S. aureus; experiment: Disc clearing assay; type: cell-based, Staphylococcus aureus; conditions: result in words
Experimental: Disc clearing assay: The disc diffusion test was performed on Mueller Hinton (MH) agar plates for bacterial cultures and yeast extract, peptone, dextrose (YPD) for fungal cultures. The assay was repeated 3 times. Discs were soaked in 10 μl of either DMSO or 10 mg/ml compound stock solution and air-dried. Three hundred microliters of an overnight culture of bacteria or fungi were spread on plates. After completely drying the agar plate in a laminar flow hood, DMSO or compound impregnated discs were overlaid on the plate and incubated at 35° C. for 18 hrs.
The disc diffusion test was carried out in triplicate on cation-adjusted Miller-Hinton agar. 6 mm discs were impregnated with 50 μg of compounds and air-dried. Three hundred microliters of an overnight S. aureus MW2 culture was spread on an agar plate and air-dried. The antimicrobial discs were overlaid on the plate and incubated at 37° C. for 20 hrs.

SMILES	fold increase in resistance [1] [fold]	fold increased resistance of CD437-resistant mutants [1] [fold]	MRSA cells killed in thigh ([2]; CD437 20 mg/kg i.p. alone, every 12 h for 3 days) [%]	persisters killed in thigh, combination ([2]; CD437 20 mg/kg i.p. plus gentamicin 30 mg/kg s.c., every 12 h for 3 days) [%]	serum levels of ALT or BUN ([2]; mouse, in vivo, ip, 20 mg/kg)	zone of inhibition, S. aureus [3]
O=C(O)/C=C/c1ccc(-c2ccc(O)c(C34CC5CC(CC(C5)C3)C4)c2)cc1 [Adarotene, (2E)-3-(4′-Hydroxy-3′-tricyclo[3.3.1.13,7]dec-1-yl[1,1′-biphenyl]-4-yl)-2-propenoic acid]	1.5	2				
O=C(O)c1ccc2cc(-c3ccc(O)c(C45CC6CC(CC(C6)C4)C5)c3)ccc2c1 [CD437, 6-(4-hydroxy-3-tricyclo[3.3.1.13,7]dec-1-ylphenyl)-2-naphthalenecarboxylic acid]			~90	~99	did not have elevated serum levels	inhibits the growth
O=C(O)c1ccc(-c2ccc3cc(O)c(C45CC6CC(CC(C6)C4)C5)cc3c2)cc1 [CD1530, 4-(6-hydroxy-7-tricyclo[3.3.1.13,7]dec-1-yl-2-naphthalenyl)-benzoic acid]	1.5	2				
